Values after ≈ are worked out from the molar mass of the structure shown. One block for each compound: values may come before it.
What was measured:
Test in all cases: ≥ marks a high value that may be exact or a test limit, other limits are often not marked, values filed in µg/mL are converted to µM
[1] = tested on: Streptococcus mutans
[2] = tested on: Staphylococcus aureus NCTC 8325
[3] = tested on: Candida albicans ATCC 90028
[4] = tested on: Escherichia coli ATCC 25922
[5] = tested on: Staphylococcus aureus ATCC 25923
[6] = tested on: Escherichia coli ATCC 25726
[7] = tested on: Staphylococcus aureus
[8] = tested on: Pasteurella multocida
[9] = tested on: Bacillus cereus
[10] = tested on: Micrococcus luteus
[11] = tested on: Listeria innocua
[12] = tested on: Escherichia coli
[13] = tested on: Staphylococcus epidermidis
[14] = tested on: Streptococcus uberis
[15] = tested on: Leuconostoc lactis

SMILES: CC[C@H](C)[C@H](NC(=O)CN)C(=O)N[C@@H](CC(C)C)C(=O)N[C@@H](CC(=O)O)C(=O)N[C@@H](CO)C(=O)N[C@@H](Cc1ccccc1)C(=O)N[C@@H](CCCCN)C(=O)NCC(=O)N[C@H](C(=O)N[C@@H](C)C(=O)N[C@@H](CCCCN)C(=O)NCC(=O)N[C@H](C(=O)N[C@@H](C)C(=O)N[C@@H](CCCCN)C(=O)N[C@@H](CC(=O)O)C(=O)N[C@@H](CC(C)C)C(=O)N[C@@H](C)C(=O)NCC(=O)N[C@@H](CCCCN)C(=O)N[C@@H](CC(C)C)C(=O)N[C@@H](CC(C)C)C(=O)N[C@@H](CC(=O)O)C(=O)N[C@@H](CCCCN)C(=O)N[C@@H](CC(C)C)C(=O)N[C@@H](CCCCN)C(=O)N[C@H]1CSSC[C@@H](C(=O)O)NC(=O)CNC(=O)[C@H]([C@@H](C)O)NC(=O)[C@H]([C@@H](C)CC)NC(=O)[C@H](CCCCN)NC1=O)C(C)C)C(C)C [GILDSFKGVAKGVAKDLAGKLLDKLKCKITGC]
MIC [2]: 11 µM (≈ 36.2 µg/mL)
MIC [5]: 50 µM (≈ 164 µg/mL)
MIC [6]: 25 µM (≈ 82.2 µg/mL)
MIC [3]: ≥ 150 µM
MIC [4]: 4 µM (≈ 13.2 µg/mL)

SMILES: CC[C@H](C)[C@H](NC(=O)CNC(=O)CNC(=O)[C@@H](NC(=O)[C@H](Cc1ccccc1)NC(=O)[C@H](CC(C)C)NC(=O)[C@H](CO)NC(=O)[C@H](CC(C)C)NC(=O)[C@@H](NC(=O)CN)[C@@H](C)CC)[C@@H](C)O)C(=O)N[C@@H](CCCCN)C(=O)N[C@@H](C)C(=O)N[C@@H](CC(C)C)C(=O)NCC(=O)N[C@@H](CCCCN)C(=O)N[C@H](C(=O)N[C@@H](CC(C)C)C(=O)N[C@@H](Cc1ccccc1)C(=O)N[C@@H](CCCCN)C(=O)N[C@@H](CCSC)C(=O)N[C@@H](C)C(=O)NCC(=O)N[C@@H](CCCCN)C(=O)N[C@@H](C)C(=O)NCC(=O)N[C@@H](C)C(=O)N[C@@H](CCC(=O)O)C(=O)N[C@@H](Cc1cnc[nH]1)C(=O)N[C@@H](CC(C)C)C(=O)N[C@@H](C)C(=O)N[C@H]1CSSC[C@@H](C(=O)O)NC(=O)[C@H](CCC(N)=O)NC(=O)[C@H](CC(N)=O)NC(=O)[C@H]([C@@H](C)O)NC(=O)[C@H](C)NC(=O)[C@H](CCCCN)NC1=O)[C@@H](C)O [GILSLFTGGIKALGKTLFKMAGKAGAEHLACKATNQC]
MIC [2]: 3 µM (≈ 11.2 µg/mL)
MIC [3]: ≥ 53 µM
MIC [4]: 6 µM (≈ 22.5 µg/mL)

SMILES: CC[C@H](C)[C@H](NC(=O)[C@@H](NC(=O)[C@H](CCCCN)NC(=O)[C@H](C)NC(=O)[C@@H](NC(=O)[C@H](CCCCN)NC(=O)[C@H](CCCCN)NC(=O)[C@@H](NC(=O)[C@@H](NC(=O)[C@H](CCCCN)NC(=O)[C@H](Cc1ccccc1)NC(=O)[C@H](CC(C)C)NC(=O)CN)C(C)C)[C@@H](C)CC)C(C)C)C(C)C)C(=O)N[C@@H](CCCCN)C(=O)N[C@@H](CCCCN)C(=O)N[C@@H](CC(C)C)C(N)=O [GLFKVIKKVAKVIKKL]
MIC [7]: 27.6 µM (≈ 50 µg/mL)
MIC [8]: ≥ 55.2 µM
MIC [9]: 27.6 µM (≈ 50 µg/mL)
MIC [10]: 13.8 µM (≈ 25 µg/mL)
MIC [11]: 13.8 µM (≈ 25 µg/mL)
MIC [12]: 55.2 µM (≈ 99.9 µg/mL)
MIC [13]: 6.62 µM (≈ 12 µg/mL)
MIC [14]: 27.6 µM (≈ 50 µg/mL)
MIC [15]: 3.31 µM (≈ 6 µg/mL)

SMILES: CC[C@H](C)[C@H](NC(=O)[C@H](CC(C)C)NC(=O)[C@H](CC(=O)O)NC(=O)CNC(=O)[C@@H](NC(=O)CN)C(C)C)C(=O)N[C@@H](CCCN=C(N)N)C(=O)N[C@@H](CCCCN)C(=O)N[C@@H](C)C(=O)N[C@H](C(=O)N[C@@H](CO)C(=O)N[C@H](C(=O)N[C@H](C(=O)N[C@@H](CCCCN)C(=O)N[C@@H](CC(N)=O)C(=O)N[C@H](C(=O)N[C@H](C(N)=O)C(C)C)[C@@H](C)CC)[C@@H](C)CC)C(C)C)C(C)C [GVGDLIRKAVSVIKNIV]
MIC [7]: 28.1 µM (≈ 50 µg/mL)
MIC [8]: ≥ 56.1 µM
MIC [9]: 14 µM (≈ 25 µg/mL)
MIC [11]: 14 µM (≈ 25 µg/mL)
MIC [12]: > 56.1 µM
MIC [13]: 7.02 µM (≈ 12.5 µg/mL)
MIC [14]: 7.02 µM (≈ 12.5 µg/mL)
MIC [15]: 1.68 µM (≈ 3 µg/mL)

SMILES: CC[C@H](C)[C@H](NC(=O)[C@H](CCCN=C(N)N)NC(=O)[C@H](CCCCN)NC(=O)[C@H](CC(C)C)NC(=O)[C@H](C)NC(=O)[C@@H](N)CCCN=C(N)N)C(=O)N[C@@H](CCCCN)C(=O)N[C@@H](Cc1cnc[nH]1)C(=O)N[C@H](C(=O)N[C@@H](CC(C)C)C(=O)N[C@@H](CCCCN)C(=O)O)C(C)C [RALKRIKHVLK]
MIC [1]: ≥ 91.8 µM

SMILES: CC(C)C[C@H](NC(=O)[C@H](Cc1cnc[nH]1)NC(=O)[C@H](CCC(N)=O)NC(=O)[C@H](Cc1ccccc1)NC(=O)[C@H](CCC(=O)O)NC(=O)[C@@H](NC(=O)[C@H](CC(C)C)NC(=O)[C@H](CC(C)C)NC(=O)[C@@H](N)Cc1ccc(O)cc1)[C@@H](C)O)C(=O)N[C@@H](Cc1ccccc1)C(=O)N[C@@H](CCCCN)C(=O)O [YLLTEFQHLFK]
MIC [1]: ≥ 86.9 µM

Second part, the compound after the results:

MIC [1]: 15.8 µM (≈ 24 µg/mL)
SMILES: CC(C)C[C@H](NC(=O)[C@H](Cc1c[nH]c2ccccc12)NC(=O)[C@H](CCCCN)NC(=O)[C@H](CC(C)C)NC(=O)[C@H](Cc1ccccc1)NC(=O)[C@@H](NC(=O)[C@H](CCCCN)NC(=O)[C@@H](N)Cc1ccccc1)[C@@H](C)O)C(=O)N[C@@H](Cc1cnc[nH]1)C(=O)N[C@@H](CCCN=C(N)N)C(=O)N[C@@H](Cc1ccccc1)C(N)=O [FKTFLKWLHRF]

MIC [2]: ≥ 50 µM
MIC [3]: ≥ 200 µM
MIC [4]: 6.25 µM (≈ 15.1 µg/mL)
SMILES: CC[C@H](C)[C@H](NC(=O)[C@H](CC(C)C)NC(=O)[C@H](CCCCN)NC(=O)[C@H](CCCCN)NC(=O)[C@@H](NC(=O)[C@H](C)NC(=O)[C@H](CCCCN)NC(=O)[C@@H](NC(=O)[C@H](C)NC(=O)[C@H](Cc1cnc[nH]1)NC(=O)[C@@H]1CCCN1C(=O)[C@@H](NC(=O)[C@H](CC(C)C)NC(=O)[C@@H]1CCCN1C(=O)[C@H](CCCCN)NC(=O)[C@@H](NC(=O)[C@H](Cc1ccc(O)cc1)NC(=O)[C@H](CCCCN)NC(=O)[C@H](CCSC)NC(=O)[C@H](Cc1ccccc1)NC(=O)CN)[C@@H](C)CC)[C@@H](C)CC)C(C)C)[C@@H](C)CC)C(=O)O [GFMKYIKPLIPHAVKAIKKLI]

MIC [2]: 2 µM (≈ 5.73 µg/mL)
MIC [3]: ≥ 35 µM
MIC [4]: 2 µM (≈ 5.73 µg/mL)
SMILES: CC[C@H](C)[C@@H]1NC(=O)[C@H](CCCCN)NC(=O)[C@@H](NC(=O)[C@H](CCCCN)NC(=O)[C@H](CC(C)C)NC(=O)[C@H](CCCCN)NC(=O)[C@H](CC(=O)O)NC(=O)[C@H](CC(C)C)NC(=O)[C@H](CCSC)NC(=O)[C@H](CO)NC(=O)[C@H](C)NC(=O)[C@H](C)NC(=O)[C@@H](NC(=O)[C@@H](NC(=O)[C@H](CCCCN)NC(=O)[C@H](C)NC(=O)[C@@H](NC(=O)CNC(=O)[C@H](CCCCN)NC(=O)[C@@H](NC(=O)[C@@H](NC(=O)[C@H](CC(=O)O)NC(=O)[C@H](CC(C)C)NC(=O)[C@H](CC(C)C)NC(=O)CN)[C@@H](C)O)[C@@H](C)CC)C(C)C)[C@@H](C)O)C(C)C)CSSC[C@@H](C(=O)O)NC(=O)CNC(=O)[C@H](CO)NC1=O [GLLDTIKGVAKTVAASMLDKLKCKISGC]

MIC [1]: 16.4 µM (≈ 24 µg/mL)
SMILES: CC[C@H](C)[C@H](NC(=O)[C@H](Cc1ccccc1)NC(=O)[C@H](CCCCN)NC(=O)[C@@H](NC(=O)[C@H](Cc1ccccc1)NC(=O)[C@H](CCC(N)=O)NC(=O)[C@H](CCCCN)NC(=O)[C@@H](N)CC(C)C)C(C)C)C(=O)N[C@@H](Cc1cnc[nH]1)C(=O)N[C@@H](CCCN=C(N)N)C(=O)N[C@@H](Cc1ccccc1)C(N)=O [LKQFVKFIHRF]

Source: DBAASP
